Data as given in article PMC7127349 (Bioorganic & Medicinal Chemistry Letters, 2018).

Test system: human coronavirus (229E)
Type: cell-based

Molecule	activity against human coronavirus (229E) lower than the activity observed with UDA	EC50 (read-out: EC50 Human Coronavirus (229E)) [nM]
CCOC(=O)C1(Cc2ccccc2)CN(c2ccccc2)Cc2nnn(CCc3cc4ccccc4[nH]3)c21 (stereo not drawn) [Compound 14n]	approximately 50 fold	
CCOC(=O)C1(Cc2ccc(F)cc2)CN(c2ccccc2)Cc2nnn(Cc3ccc(Cl)c(Cl)c3)c21 (stereo not drawn) [Compound 14q]	approximately 50 fold	
COc1ccc(CCn2nnc3c2CCN(c2ccc(C(F)(F)F)cc2)C3)cc1 [Compound 18f]	approximately 50 fold	
CCOC(=O)C1(Cc2ccccc2)CN(c2ccccc2)Cc2nnn(Cc3ccc(F)cc3)c21 (stereo not drawn) [Compound 14d]	approximately 50 fold	
Fc1cccc(Cn2nnc3c2CCN(c2ccc(C(F)(F)F)cc2)C3)c1 [Compound 18i]	approximately 50 fold	
Urtica dioica agglutinin (protein, UniProt P11218 24-372, looked up) Lectin/endochitinase 1: QRCGSQGGGGTCPALWCCSIWGWCGDSEPYCGRTCENKCWSGERSDHRCGAAVGNPPCGQDRCCSVHGWCGGGNDYCSGSKCQYRCSSSVRGPRVALSGNSTANSIGNVVVTEPLFDQMFSHRKDCPSQGFYSYHSFLVAAESFPAFGTIGDVATRKREVAAFLAHISQATSGERSDVENPHAWGLCHINTTTVTENDFCTSSDWPCAAGKKYSPRGPIQLTHNFNYGLAGQAIGEDLIQNPDLVEKDPIISFKTALWFWMSQHDNKPSCHDIVLNANSAANRIPNKGVIGNIISRAFGHDDFAVRSSSIGFYKRYCDMLGVSYGHDLKYWFDNTPSSEFQRIQMRVAA		200
